From patent US10844077B2, “Thiazolyl-containing compounds for treating proliferative diseases” (Dana-Farber Cancer Institute, Inc., priority 2014, dated 2020)
“And” between values parts separate entries of the source, which are not always exact repeats. Equal values may be shown once.

Key:
Test in all cases: KINATIV assay
Type in all cases: cell-based
Conditions in all cases: 1 μM, 90 minutes, BCWM.1 cells
RSK2 domain2 = RSK2 domain2 (Homo sapiens (Human), UniProt P51812)
Outline: (§1)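 Lysed cells serve as the kinase source; labeling uses an ATP-biotin probe added directly to lysate. ACTIVX then identifies and measures the captured kinases, with compound samples in duplicate against duplicate or quadruplicate controls.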

PIK3CD = PIK3CD (Homo sapiens (Human), UniProt O00329)
Outline: as §1

IKKe = IKKe (Homo sapiens (Human), UniProt Q14164)
Outline: as §1

FRAP = FRAP (Homo sapiens (Human), UniProt P42345)
Outline: as §1

MAP3K1 = MAP3K1 (Homo sapiens (Human), UniProt Q13233)
Outline: as §1

NEK6, NEK7 = tested on: NEK6, NEK7
Outline: as §1

ITPK1 = ITPK1 (Homo sapiens (Human), UniProt Q13572)
Outline: as §1

STK33 = STK33 (Homo sapiens (Human), UniProt Q9BYT3)
Outline: as §1

PIK3CB = PIK3CB (Homo sapiens (Human), UniProt P42338)
Outline: as §1

TBK1 = TBK1 (Homo sapiens (Human), UniProt Q9UHD2)
Outline: as §1

PI4KB = PI4KB (Homo sapiens (Human), UniProt Q9UBF8)
Outline: as §1

AMPKa1 = AMPKa1 (Homo sapiens (Human), UniProt Q13131)
Outline: as §1

PEK = PEK (Homo sapiens (Human), UniProt Q9NZJ5)
Outline: as §1

ULK1 = ULK1 (Homo sapiens (Human), UniProt O75385)
Outline: as §1

PIP4K2C = PIP4K2C (Homo sapiens (Human), UniProt Q8TBX8)
Outline: as §1

TLK2 = TLK2 (Homo sapiens (Human), UniProt Q86UE8)
Outline: as §1

MSK1 domain1 = MSK1 domain1 (Homo sapiens (Human), UniProt O75582)
Outline: as §1

MARK4 = MARK4 (Homo sapiens (Human), UniProt Q96L34)
Outline: as §1

Erk1 = Erk1 (Homo sapiens (Human), UniProt P27361)
Outline: as §1

MST1 = MST1 (Homo sapiens (Human), UniProt Q13043)
Outline: as §1

PYK2 = PYK2 (Homo sapiens (Human), UniProt Q14289)
Outline: as §1

YSK1 = YSK1 (Homo sapiens (Human), UniProt O00506)
Outline: as §1

CDK11, CDK8 = tested on: CDK11, CDK8
Outline: as §1

MAP3K5 = MAP3K5 (Homo sapiens (Human), UniProt Q99683)
Outline: as §1

RSK3 = RSK3 (Homo sapiens (Human), UniProt Q15349)
Outline: as §1

CDC2 = CDC2 (Homo sapiens (Human), UniProt P06493)
Outline: as §1

MST1, MST2 = tested on: MST1, MST2
Outline: as §1

FGR = FGR (Homo sapiens (Human), UniProt P09769)
Outline: as §1

KHS1 = KHS1 (Homo sapiens (Human), UniProt Q9Y4K4)
Outline: as §1

MST4, YSK1 = tested on: MST4, YSK1
Outline: as §1

GCN2 = GCN2 (Homo sapiens (Human), UniProt Q9P2K8)
Outline: as §1

MAP3K4 = MAP3K4 (Homo sapiens (Human), UniProt Q9Y6R4)
Outline: as §1

PHKg2 = PHKg2 (Homo sapiens (Human), UniProt P15735)
Outline: as §1

MST2 = MST2 (Homo sapiens (Human), UniProt Q13188)
Outline: as §1

ULK3 = ULK3 (Homo sapiens (Human), UniProt Q6PHR2)
Outline: as §1

PKN1 = PKN1 (Homo sapiens (Human), UniProt Q16512)
Outline: as §1

AKT1 = AKT1 (Homo sapiens (Human), UniProt P31749)
Outline: as §1

STLK6 = STLK6 (Homo sapiens (Human), UniProt Q9C0K7)
Outline: as §1

p38b = p38b (Homo sapiens (Human), UniProt Q15759)
Outline: as §1

PIP5K3 = PIP5K3 (Homo sapiens (Human), UniProt Q9Y2I7)
Outline: as §1

BARK1 = BARK1 (Homo sapiens (Human), UniProt P25098)
Outline: as §1

Chain of PI4KB (Q9UBF8 whole entry): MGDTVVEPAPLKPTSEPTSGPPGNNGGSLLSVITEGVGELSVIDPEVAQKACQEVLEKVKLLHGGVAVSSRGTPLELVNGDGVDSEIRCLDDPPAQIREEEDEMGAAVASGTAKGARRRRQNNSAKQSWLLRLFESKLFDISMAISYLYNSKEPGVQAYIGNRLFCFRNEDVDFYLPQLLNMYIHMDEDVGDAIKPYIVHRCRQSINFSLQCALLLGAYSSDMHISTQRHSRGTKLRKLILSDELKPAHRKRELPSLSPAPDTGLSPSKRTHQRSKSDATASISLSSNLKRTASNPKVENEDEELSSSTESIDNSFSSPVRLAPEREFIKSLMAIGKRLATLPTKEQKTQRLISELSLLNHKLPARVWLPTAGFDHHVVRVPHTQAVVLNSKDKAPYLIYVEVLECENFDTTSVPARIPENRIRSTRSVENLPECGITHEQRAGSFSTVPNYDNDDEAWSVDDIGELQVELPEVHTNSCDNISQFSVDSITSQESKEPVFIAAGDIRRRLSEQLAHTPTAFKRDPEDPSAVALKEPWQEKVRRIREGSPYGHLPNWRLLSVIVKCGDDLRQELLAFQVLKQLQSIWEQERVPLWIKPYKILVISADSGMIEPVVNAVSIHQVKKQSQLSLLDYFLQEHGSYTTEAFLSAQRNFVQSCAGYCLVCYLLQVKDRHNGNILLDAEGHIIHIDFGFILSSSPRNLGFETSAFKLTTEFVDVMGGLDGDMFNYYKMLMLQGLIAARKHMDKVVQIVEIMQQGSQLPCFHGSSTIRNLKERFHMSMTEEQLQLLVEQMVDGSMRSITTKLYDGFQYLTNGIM
Chain of GCN2 (Q9P2K8 whole entry): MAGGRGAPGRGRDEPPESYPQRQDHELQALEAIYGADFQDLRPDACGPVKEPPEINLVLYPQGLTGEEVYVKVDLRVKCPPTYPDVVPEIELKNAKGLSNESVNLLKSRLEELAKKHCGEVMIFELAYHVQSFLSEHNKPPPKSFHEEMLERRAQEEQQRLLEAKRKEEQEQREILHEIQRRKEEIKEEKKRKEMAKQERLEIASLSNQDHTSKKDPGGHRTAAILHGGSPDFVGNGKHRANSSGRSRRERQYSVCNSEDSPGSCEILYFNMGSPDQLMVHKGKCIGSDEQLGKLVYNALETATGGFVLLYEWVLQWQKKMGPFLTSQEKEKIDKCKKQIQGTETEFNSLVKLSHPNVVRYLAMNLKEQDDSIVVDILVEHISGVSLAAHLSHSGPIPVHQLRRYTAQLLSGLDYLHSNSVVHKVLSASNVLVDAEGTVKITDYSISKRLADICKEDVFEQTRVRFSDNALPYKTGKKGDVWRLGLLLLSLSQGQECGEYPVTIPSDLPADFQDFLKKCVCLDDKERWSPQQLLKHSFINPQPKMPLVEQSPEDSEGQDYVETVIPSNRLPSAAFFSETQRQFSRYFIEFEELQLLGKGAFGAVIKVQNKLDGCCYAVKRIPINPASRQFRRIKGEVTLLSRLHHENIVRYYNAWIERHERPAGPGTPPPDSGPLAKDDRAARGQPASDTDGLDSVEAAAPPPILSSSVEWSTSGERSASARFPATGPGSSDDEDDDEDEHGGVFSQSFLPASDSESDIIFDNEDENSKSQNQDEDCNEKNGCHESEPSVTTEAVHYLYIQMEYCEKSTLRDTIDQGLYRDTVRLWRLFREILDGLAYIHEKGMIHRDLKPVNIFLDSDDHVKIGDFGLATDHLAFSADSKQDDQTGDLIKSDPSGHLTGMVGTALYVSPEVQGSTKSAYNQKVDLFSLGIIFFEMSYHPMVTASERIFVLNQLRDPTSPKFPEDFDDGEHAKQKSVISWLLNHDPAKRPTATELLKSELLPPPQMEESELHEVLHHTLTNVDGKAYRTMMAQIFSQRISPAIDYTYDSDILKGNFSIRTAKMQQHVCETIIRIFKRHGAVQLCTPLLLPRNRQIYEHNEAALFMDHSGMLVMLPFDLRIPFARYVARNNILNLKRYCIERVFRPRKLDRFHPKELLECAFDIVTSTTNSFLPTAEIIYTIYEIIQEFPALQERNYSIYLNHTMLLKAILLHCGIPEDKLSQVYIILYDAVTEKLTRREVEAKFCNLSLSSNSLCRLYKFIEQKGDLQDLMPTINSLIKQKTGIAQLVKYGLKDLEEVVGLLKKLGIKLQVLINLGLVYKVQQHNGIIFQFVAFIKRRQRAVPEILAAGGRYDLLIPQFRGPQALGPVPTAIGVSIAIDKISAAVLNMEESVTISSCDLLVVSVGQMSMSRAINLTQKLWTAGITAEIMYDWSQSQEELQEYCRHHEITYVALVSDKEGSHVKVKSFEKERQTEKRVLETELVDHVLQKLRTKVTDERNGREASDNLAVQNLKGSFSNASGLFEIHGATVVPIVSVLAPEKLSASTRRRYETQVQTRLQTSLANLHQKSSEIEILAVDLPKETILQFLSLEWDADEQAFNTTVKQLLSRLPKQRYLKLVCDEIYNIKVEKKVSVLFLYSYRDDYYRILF
Chain of MARK4 (Q96L34 whole entry): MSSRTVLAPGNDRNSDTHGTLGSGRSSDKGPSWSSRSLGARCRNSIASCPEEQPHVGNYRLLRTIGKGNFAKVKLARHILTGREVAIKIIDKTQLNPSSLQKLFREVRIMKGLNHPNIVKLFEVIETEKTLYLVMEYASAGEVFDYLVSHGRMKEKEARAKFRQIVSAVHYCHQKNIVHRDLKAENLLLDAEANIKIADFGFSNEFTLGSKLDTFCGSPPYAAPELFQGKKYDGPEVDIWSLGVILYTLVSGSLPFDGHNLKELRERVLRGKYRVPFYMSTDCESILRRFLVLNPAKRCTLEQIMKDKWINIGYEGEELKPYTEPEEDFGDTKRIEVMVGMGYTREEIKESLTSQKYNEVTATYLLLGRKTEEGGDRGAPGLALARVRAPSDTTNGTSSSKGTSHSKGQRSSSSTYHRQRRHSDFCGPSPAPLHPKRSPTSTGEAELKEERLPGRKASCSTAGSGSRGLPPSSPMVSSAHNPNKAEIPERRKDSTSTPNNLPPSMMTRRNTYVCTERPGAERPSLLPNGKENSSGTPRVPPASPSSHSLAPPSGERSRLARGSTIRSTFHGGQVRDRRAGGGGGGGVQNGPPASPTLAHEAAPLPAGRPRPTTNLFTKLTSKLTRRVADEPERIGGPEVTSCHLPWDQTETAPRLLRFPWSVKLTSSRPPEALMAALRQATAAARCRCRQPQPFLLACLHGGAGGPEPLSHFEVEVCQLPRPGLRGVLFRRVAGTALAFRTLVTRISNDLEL
Chain of ULK3 (Q6PHR2 whole entry): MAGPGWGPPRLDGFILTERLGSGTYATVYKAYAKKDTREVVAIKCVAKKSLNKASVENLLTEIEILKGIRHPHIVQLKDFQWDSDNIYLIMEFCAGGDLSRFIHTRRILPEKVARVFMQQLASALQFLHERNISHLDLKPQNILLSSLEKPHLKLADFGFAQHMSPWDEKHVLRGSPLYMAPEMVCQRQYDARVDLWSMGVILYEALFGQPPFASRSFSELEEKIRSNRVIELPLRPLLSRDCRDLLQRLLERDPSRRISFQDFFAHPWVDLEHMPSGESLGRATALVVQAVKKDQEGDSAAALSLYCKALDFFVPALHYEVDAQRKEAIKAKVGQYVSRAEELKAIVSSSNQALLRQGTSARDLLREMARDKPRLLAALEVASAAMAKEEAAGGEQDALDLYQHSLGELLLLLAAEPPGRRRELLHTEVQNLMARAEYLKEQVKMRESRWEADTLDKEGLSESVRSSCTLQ
Chain of PYK2 (Q14289 whole entry): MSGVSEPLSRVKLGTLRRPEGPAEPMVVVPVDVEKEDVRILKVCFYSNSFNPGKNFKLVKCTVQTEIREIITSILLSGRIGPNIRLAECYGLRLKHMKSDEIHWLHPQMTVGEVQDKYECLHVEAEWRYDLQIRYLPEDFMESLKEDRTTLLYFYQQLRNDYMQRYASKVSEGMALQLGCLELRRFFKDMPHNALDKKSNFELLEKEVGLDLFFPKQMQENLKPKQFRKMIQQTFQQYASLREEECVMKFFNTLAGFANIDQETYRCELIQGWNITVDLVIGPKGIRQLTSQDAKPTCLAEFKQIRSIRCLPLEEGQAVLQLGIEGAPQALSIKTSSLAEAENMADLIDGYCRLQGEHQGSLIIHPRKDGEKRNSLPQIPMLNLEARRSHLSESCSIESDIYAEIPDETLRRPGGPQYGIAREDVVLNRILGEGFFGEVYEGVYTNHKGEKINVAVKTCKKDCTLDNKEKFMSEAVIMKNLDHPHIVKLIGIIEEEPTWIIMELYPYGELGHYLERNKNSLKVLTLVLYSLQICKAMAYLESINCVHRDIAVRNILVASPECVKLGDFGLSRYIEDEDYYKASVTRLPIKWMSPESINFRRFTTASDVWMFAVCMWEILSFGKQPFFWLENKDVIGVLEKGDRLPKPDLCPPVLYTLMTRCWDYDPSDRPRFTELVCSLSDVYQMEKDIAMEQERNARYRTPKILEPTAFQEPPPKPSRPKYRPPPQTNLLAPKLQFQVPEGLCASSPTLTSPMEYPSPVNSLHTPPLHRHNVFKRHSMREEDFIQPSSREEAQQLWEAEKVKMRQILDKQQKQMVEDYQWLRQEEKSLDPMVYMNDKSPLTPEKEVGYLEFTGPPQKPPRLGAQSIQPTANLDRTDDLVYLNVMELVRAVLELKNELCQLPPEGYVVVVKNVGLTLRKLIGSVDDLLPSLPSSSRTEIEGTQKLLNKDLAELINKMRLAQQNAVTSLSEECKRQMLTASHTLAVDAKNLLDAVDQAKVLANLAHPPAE
Chain of p38b (Q15759 whole entry): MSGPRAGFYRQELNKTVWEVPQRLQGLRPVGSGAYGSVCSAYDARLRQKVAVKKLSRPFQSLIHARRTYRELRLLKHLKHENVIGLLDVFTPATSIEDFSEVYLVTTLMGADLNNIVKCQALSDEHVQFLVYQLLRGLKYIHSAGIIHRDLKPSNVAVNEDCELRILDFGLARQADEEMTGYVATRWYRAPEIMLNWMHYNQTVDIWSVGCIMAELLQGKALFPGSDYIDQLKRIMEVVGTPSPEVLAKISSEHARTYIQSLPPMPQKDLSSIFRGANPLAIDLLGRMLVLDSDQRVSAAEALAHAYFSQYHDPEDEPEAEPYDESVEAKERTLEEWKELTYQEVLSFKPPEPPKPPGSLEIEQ

`C=CC(=O)N1CCCCC(Nc2nccc(Nc3ncc(C(=O)Nc4c(C)cccc4C)s3)n2)C1` (centres unmarked) [Example I-7] was tested, and the “% change of MS signal compared to control sample” value (“% change of MS signal” below) (RSK2 domain2) was −0.3%, the “% change of MS signal” value (PIK3CD) was −19.1% and the “% change of MS signal” value (IKKe) was 0.4%. The “% change of MS signal” value (FRAP) was −3.5%, the “% change of MS signal” value (MAP3K1) was 7.9% and the “% change of MS signal” value (NEK6, NEK7) was −8.4%. The “% change of MS signal” value (ITPK1) was −17.5%, the “% change of MS signal” value (STK33) was 21.1% and the “% change of MS signal” value (PIK3CB) was −42.6%. For the same compound, the “% change of MS signal” value (TBK1) was −39.7%, the “% change of MS signal” value (PI4KB) was 36.0% and 35.3% and the “% change of MS signal” value (AMPKa1) was 2.7%. For the same compound, the “% change of MS signal” value (PEK) was 2.6%, the “% change of MS signal” value (ULK1) was 19.3% and the “% change of MS signal” value (PIP4K2C) was 70.9% and 60.1%. The “% change of MS signal” value (TLK2) was 7.3%, the “% change of MS signal” value (MSK1 domain1) was −40.5% and the “% change of MS signal” value (MARK4) was 4.9% and 14.1%. For the same compound, the “% change of MS signal” value (Erk1) was −23.1%, the “% change of MS signal” value (MST1) was 3.0% and the “% change of MS signal” value (PYK2) was 16.6% and 28.4%. The “% change of MS signal” value (YSK1) was −19.9%, the “% change of MS signal” value (CDK11, CDK8) was −3.5% and the “% change of MS signal” value (MAP3K5) was −9.3%. The “% change of MS signal” value (RSK3) was 12.6%, the “% change of MS signal” value (CDC2) was −16.2% and the “% change of MS signal” value (MST1, MST2) was 9.5%. For the same compound, the “% change of MS signal” value (FGR) was 94.7%, the “% change of MS signal” value (KHS1) was −5.9% and the “% change of MS signal” value (MST4, YSK1) was 12.7%. The “% change of MS signal” value (GCN2) was −13.3% and −6.3%, the “% change of MS signal” value (MAP3K4) was −24.2% and the “% change of MS signal” value (PHKg2) was 0.6%. For the same compound, the “% change of MS signal” value (MST2) was 6.5%, the “% change of MS signal” value (ULK3) was 15.5% and 18.4% and the “% change of MS signal” value (PKN1) was 4.2%. The “% change of MS signal” value (AKT1) was −16.4%, the “% change of MS signal” value (STLK6) was −16.3% and the “% change of MS signal” value (p38b) was −1.5%. The “% change of MS signal” value (PIP5K3) was 4.3% and the “% change of MS signal” value (BARK1) was −29.7%.
